Reference: patent US20160235735A1 (Teva Pharmaceutical Industries, Ltd., priority 2012, published 2016)
“And” between values parts separate entries of the source, which are not always exact repeats. Identical values can stand only once.

How the values were obtained:
[1] = in vivo; cited from earlier work
[2] = cited from earlier work
MOG-induced EAE Mice = assay: MOG-induced EAE in mice: laquinimod alone or in combination with fampridine; format: in vivo, C57BL/6 mice; conditions: for Incidence / Mortality: 30 days; for % inhibition 3: according to GMS; for % inhibition 2: according to MMS; for % inhibition 1: according to incidence; for GMS value: group mean score; for MMS value: mean maximal score
[3] = in vivo; cited from earlier work; remark: listed apart in the source
[4] = 4AP 2.5 mg/kg oral QD, compared to vehicle
[5] = 4AP 5 mg/kg oral QD, compared to vehicle
[6] = laquinimod 10 mg/kg oral QD, compared to vehicle
[7] = laquinimod 25 mg/kg oral QD, compared to LAQ (10 mg/kg)
[8] = laquinimod 25 mg/kg oral QD, compared to vehicle

For `Nc1ccncc1` [4AP, pyridin-4-amine], the safety issues [1] is given as “safety issues related to seizure induction”, the “solubility in aqueous solution” value ([2]; chloride salt) is given as “readily soluble” and the lipid solubility ([2]; unionized form) is given as “lipid-soluble”. For the same molecule, the Incidence (MOG-induced EAE Mice; 4AP 2.5 mg/kg oral QD) was 15/15, the Mortality (MOG-induced EAE Mice; 4AP 2.5 mg/kg oral QD) was 0/15 and the “% inhibition 3” value (MOG-induced EAE Mice; [4]) was 24.1%. For the same molecule, the “% inhibition 3” value (MOG-induced EAE Mice; 4AP 2.5 mg/kg oral QD, compared to vehicle, listed as fampridine) was 24.1%, the “% inhibition 2” value (MOG-induced EAE Mice; [4]) was 10.2% and the “% inhibition 1” value (MOG-induced EAE Mice; [4]) was 0%. The GMS value (MOG-induced EAE Mice; 4AP 2.5 mg/kg oral QD) was 2.2 ± 0.5, the MMS value (MOG-induced EAE Mice; 4AP 2.5 mg/kg oral QD) was 3.5 ± 0.6 and the Incidence (MOG-induced EAE Mice; 4AP 5 mg/kg oral QD) was 15/15. The Mortality (MOG-induced EAE Mice; 4AP 5 mg/kg oral QD) was 0/15, the “% inhibition 3” value (MOG-induced EAE Mice; [5]) was 34.5% and the “% inhibition 3” value (MOG-induced EAE Mice; 4AP 5 mg/kg oral QD, compared to vehicle, listed as fampridine) was 34.5%. The “% inhibition 2” value (MOG-induced EAE Mice; [5]) was 12.8%, the “% inhibition 1” value (MOG-induced EAE Mice; [5]) was 0% and the GMS value (MOG-induced EAE Mice; 4AP 5 mg/kg oral QD) was 1.9 ± 0.6. It also gave an MMS value (MOG-induced EAE Mice; 4AP 5 mg/kg oral QD) of 3.4 ± 0.6.
In the case of `CCN(C(=O)c1c(O)c2c(Cl)cccc2n(C)c1=O)c1ccccc1` [LAQ, Laquinimod], the oral bioavailability [3] is listed as “high oral bioavailability”, the Incidence (MOG-induced EAE Mice; laquinimod 10 mg/kg oral QD) is listed as 10/15 and 15/15 and the Mortality (MOG-induced EAE Mice; laquinimod 10 mg/kg oral QD) is listed as 0/15. For the same molecule, the “% inhibition 3” value (MOG-induced EAE Mice; [6]) was 58.6%, the “% inhibition 3” value (MOG-induced EAE Mice; laquinimod 10 mg/kg oral QD, compared to vehicle, listed as laquinimod) was 58.6% and the “% inhibition 2” value (MOG-induced EAE Mice; [6]) was 38.5%. The “% inhibition 1” value (MOG-induced EAE Mice; [6]) was 33.3%, the GMS value (MOG-induced EAE Mice; laquinimod 10 mg/kg oral QD) was 1.2 ± 1.0 and the MMS value (MOG-induced EAE Mice; laquinimod 10 mg/kg oral QD) was 2.4 ± 1.9. For the same molecule, the Incidence (MOG-induced EAE Mice; laquinimod 25 mg/kg oral QD) was 4/15, the Mortality (MOG-induced EAE Mice; laquinimod 25 mg/kg oral QD) was 0/15 and the “% inhibition 3” value (MOG-induced EAE Mice; [7]) was 66.7%. For the same molecule, the “% inhibition 3” value (MOG-induced EAE Mice; [8]) was 86.2%, the “% inhibition 3” value (MOG-induced EAE Mice; laquinimod 25 mg/kg oral QD, compared to vehicle, listed as laquinimod) was 86.2% and the “% inhibition 2” value (MOG-induced EAE Mice; [7]) was 70.8%. For the same molecule, the “% inhibition 2” value (MOG-induced EAE Mice; [8]) was 82.1%, the “% inhibition 1” value (MOG-induced EAE Mice; [7]) was 60.0% and the “% inhibition 1” value (MOG-induced EAE Mice; [8]) was 73.3%. It also gave a GMS value (MOG-induced EAE Mice; laquinimod 25 mg/kg oral QD) of 0.4 ± 0.7 and an MMS value (MOG-induced EAE Mice; laquinimod 25 mg/kg oral QD) of 0.7 ± 1.3.
